Reference: PubChem BioAssay AID2060484 (Molecular Pharmacology Branch, DTP, NCI, 2025)
Where “and” joins values, the source holds several entries; their conditions need not be identical. Equal entries are not always repeated.

System: SUM149PT spheroids with HUVEC/MSC, viability
Test: Anticancer human tumor SUM149PT cell line growth inhibition [GQUAD];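 also: spheroids exposed to drugs for seven days before readout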;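 as to viability, T/C: percent viability relative to DMSO vehicle control taken as 100%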
Conditions: for viability, T/C: stronger effect = lower value
Source text: DNA G-quadruplex Stabilizer Agents in Combinations in Complex Spheroids
A high-throughput screen of multi-cell type tumor spheroids was designed to identify active combinations of DNA G-quadruplex stabilizer agents and targeted small molecules. Complex spheroids include a stromal component modeled by human endothelial cells (HUVEC) and fibroblasts modeled by human mesenchymal stem cells (MSCs). The concentration ranges selected for each drug and investigational agent were based upon clinically achievable concentrations if the clinical Cmax of the agent was known.
Compounds. The drugs and investigational agents: pidnarulex (CX-5461; NSC782164), APTO-253 (NSC789042), BRACO-19 (NSC847499), peposertib (NSC802822), ceralasertib (NSC780249), elimusertib (NSC800525), camonsertib (NSC841442), AZD-1390 (NSC803789), olaparib (NSC753686), talazoparib (NSC767125), ART-558 (NSC835418), sotorasib (NSC818433), MRTX-1133 (NSC836407), SN-38 (NSC673596), topotecan (NSC609699), etoposide (NSC141540), doxorubicin (NSC123127), gemcitabine (NSC613327), 5-fluorouracil (NSC19893), paclitaxel (NSC125973), vemurafenib (NSC761431), panobinostat (NSC761190), R-306465 (JNJ-16241199; NSC773264), adavosertib (NSC754352), TP-3654 (NSC805149), carboplatin (NSC241240), KSQ-4279 (NSC840948), and staurosporine (NSC755774) were obtained from the National Cancer Institute (NCI) Developmental Therapeutics Program Chemical Repository (34). The FDA-approved anticancer drug set is available from the NCI Developmental Therapeutics Program. […] The stock solutions were prepared in dimethyl sulfoxide (DMSO, Sigma-Aldrich, St. Louis, MO, cat. D2650) at 800-fold the tested concentration and stored at -70 degrees C prior to their use. All drugs and investigational agents were tested over a range starting from a high concentration at or near the clinical Cmax and decreasing in half-log increments. If the clinical Cmax for an agent had not been determined, the highest concentration tested was 10 microM.
2.3 Cell Culture. All cells were maintained in an incubator at 37 degrees C and 5% CO2 with 95% humidity. The PDC lines were cultured according to standard operating procedures established by the NCI PDMR. All PDCs were thawed and cultured in Matrigel-coated flasks prepared with a working solution of 1X Ham's F-12 nutrient mix, without supplementation (Invitrogen, cat. 11765054), 100 U/mL penicillin-streptomycin (Invitrogen, cat. 15140122), and 2.5% Matrigel (Corning Inc., cat. 354248) for the first three passages. The 857933-349-R-J2-PDC line was cultured in 6C/Colon 1B media, which includes advanced DMEM/F-12 (Thermo Fisher Scientific, cat. 12634028), 10 mM HEPES (Thermo Fisher Scientific, cat. 15630080), 1X GlutaMAX supplement (Thermo Fisher Scientific, cat. 35050061), 0.1 mg/mL primocin (InvivoGen, cat. ant-pm-2), 10% defined fetal bovine serum, heat inactivated (HyClone Laboratories Inc., cat. SH30070.03HI), 50% L-WRN conditioned media (ATCC, cat. CRL-3276), 1.25 mM N-Acetyl-L-cysteine (Sigma-Aldrich, cat. A9165), 10 mM nicotinamide (Sigma-Aldrich, cat. N0636), 1X B-27 supplement (Thermo Fisher Scientific, cat. 17504044), 1X N-2 supplement (Thermo Fisher Scientific, cat. 17502048), 10 microM Y-27632 dihydrochloride (Tocris Bioscience, cat. 1254), and 50 ng/mL human EGF recombinant protein (Thermo Fisher Scientific, cat. PHG0311). The 485176-168-R4-J1-PDC line was cultured in Panc media, which includes all 6C/Colon 1B media components plus 100 ng/mL human FGF-10 (Thermo Fisher Scientific, cat. 100-26), 500 nM SB-431542 (Selleckchem, cat. S1067), and gastrin (Tocris, cat. 3006).
[…]

[1] = curve of first compound, second compound 0.0316 µM
[2] = curve of first compound, second compound 0.1 µM
[3] = curve of first compound, second compound 0.316 µM
[4] = curve of first compound, second compound 1 µM
[5] = curve of first compound, second compound 3.16 µM
[6] = curve of first compound, second compound 10 µM
[7] = second compound 0.0316 µM, first compound 0.0316 µM
[8] = second compound 0.0316 µM, first compound 0.1 µM
[9] = second compound 0.0316 µM, first compound 0.316 µM
[10] = second compound 0.0316 µM, first compound 1 µM
[11] = second compound 0.0316 µM, first compound 3.16 µM
[12] = second compound 0.0316 µM, first compound 10 µM
[13] = second compound 0.1 µM, first compound 0.0316 µM
[14] = second compound 0.1 µM, first compound 0.1 µM
[15] = second compound 0.1 µM, first compound 0.316 µM
[16] = second compound 0.1 µM, first compound 1 µM
[17] = second compound 0.1 µM, first compound 3.16 µM
[18] = second compound 0.1 µM, first compound 10 µM
[19] = second compound 0.316 µM, first compound 0.0316 µM
[20] = second compound 0.316 µM, first compound 0.1 µM
[21] = second compound 0.316 µM, first compound 0.316 µM
[22] = second compound 0.316 µM, first compound 1 µM
[23] = second compound 0.316 µM, first compound 3.16 µM
[24] = second compound 0.316 µM, first compound 10 µM
[25] = second compound 1 µM, first compound 0.0316 µM
[26] = second compound 1 µM, first compound 0.1 µM
[27] = second compound 1 µM, first compound 0.316 µM
[28] = second compound 1 µM, first compound 1 µM
[29] = second compound 1 µM, first compound 3.16 µM
[30] = second compound 1 µM, first compound 10 µM
[31] = second compound 3.16 µM, first compound 0.0316 µM
[32] = second compound 3.16 µM, first compound 0.1 µM
[33] = second compound 3.16 µM, first compound 0.316 µM
[34] = second compound 3.16 µM, first compound 1 µM
[35] = second compound 3.16 µM, first compound 3.16 µM
[36] = second compound 3.16 µM, first compound 10 µM
[37] = second compound 10 µM, first compound 0.0316 µM
[38] = second compound 10 µM, first compound 0.1 µM
[39] = second compound 10 µM, first compound 0.316 µM
[40] = second compound 10 µM, first compound 1 µM
[41] = second compound 10 µM, first compound 3.16 µM
[42] = second compound 10 µM, first compound 10 µM

Work on CCCS(=O)(=O)Nc1ccc(F)c(C(=O)c2c[nH]c3ncc(-c4ccc(Cl)cc4)cc23)c1F + Cc1cnc(CNC(=O)c2c(=O)c3ccc(N4CCCN(C)CC4)nc3n3c2sc2ccccc23)cn1 yielded an IC50 [1] of 5.87 µM, an IC50 [2] of 3.1 µM and an IC50 [3] of 1.45 µM. For the same compound, the IC50 [4] was under 0.0316 µM, the IC50 [5] was under 0.0316 µM and the IC50 [6] was under 0.0316 µM. For the same compound, the viability, T/C [7] was 80%, the viability, T/C [8] was 76.5% and the viability, T/C [9] was 96.1%. For the same compound, the viability, T/C [10] was 88.6%, the viability, T/C [11] was 67.5% and the viability, T/C [12] was 34.9%. For the same compound, the viability, T/C [13] was 67.8%, the viability, T/C [14] was 68.3% and the viability, T/C [15] was 79.3%. It also gave a viability, T/C [16] of 66.5%, a viability, T/C [17] of 50% and a viability, T/C [18] of 33.2%. For the same compound, the viability, T/C [19] was 51.9%, the viability, T/C [20] was 57.5% and the viability, T/C [21] was 56.5%. For the same compound, the viability, T/C [22] was 52.9%, the viability, T/C [23] was 43.2% and the viability, T/C [24] was 31%. It also gave a viability, T/C [25] of 51.5%, a viability, T/C [26] of 46% and a viability, T/C [27] of 44.6%. The viability, T/C [28] was 46.6%, the viability, T/C [29] was 37.7% and the viability, T/C [30] was 25.4%. It also gave a viability, T/C [31] of 37.5%, a viability, T/C [32] of 38% and a viability, T/C [33] of 43.1%. For the same compound, the viability, T/C [34] was 38%, the viability, T/C [35] was 37% and the viability, T/C [36] was 23.4%. It also gave a viability, T/C [37] of 0.2%, a viability, T/C [38] of 11.8% and a viability, T/C [39] of 0.67%. It also gave a viability, T/C [40] of 11.7%, a viability, T/C [41] of 2.28% and a viability, T/C [42] of 2.88%.

In the case of CC(C)n1c(=O)n(C)c2cnc3cc(F)c(-c4ccc(OCCCN5CCCCC5)nc4)cc3c21 + CN(C)c1ccc(Nc2c3ccc(NC(=O)CCN4CCCC4)cc3nc3cc(NC(=O)CCN4CCCC4)ccc23)cc1, the IC50 [1] is reported as over 10 µM, the IC50 [2] is reported as over 10 µM and the IC50 [3] is reported as over 10 µM. For the same compound, the IC50 [4] was over 10 µM, the IC50 [5] was 8.83 µM and the IC50 [6] was 1.18 µM. It also gave a viability, T/C [7] of 101%, a viability, T/C [8] of 88.5% and a viability, T/C [9] of 95%. For the same compound, the viability, T/C [10] was 99.9%, the viability, T/C [11] was 95.8% and the viability, T/C [12] was 68.2%. The viability, T/C [13] was 98.6%, the viability, T/C [14] was 90.2% and the viability, T/C [15] was 96.3%. The viability, T/C [16] was 95.7%, the viability, T/C [17] was 96.5% and the viability, T/C [18] was 64.2%. It also gave a viability, T/C [19] of 94%, a viability, T/C [20] of 79.4% and a viability, T/C [21] of 86.6%. For the same compound, the viability, T/C [22] was 95.8%, the viability, T/C [23] was 93% and the viability, T/C [24] was 61.5%. The viability, T/C [25] was 74.8%, the viability, T/C [26] was 83.4% and the viability, T/C [27] was 87.4%. For the same compound, the viability, T/C [28] was 89.7%, the viability, T/C [29] was 81.2% and the viability, T/C [30] was 57%. For the same compound, the viability, T/C [31] was 84.7%, the viability, T/C [32] was 80.9% and the viability, T/C [33] was 73%. It also gave a viability, T/C [34] of 72.2%, a viability, T/C [35] of 70.7% and a viability, T/C [36] of 46.6%. The viability, T/C [37] was 75.3%, the viability, T/C [38] was 71.6% and the viability, T/C [39] was 61.9%. For the same compound, the viability, T/C [40] was 52.1%, the viability, T/C [41] was 38.8% and the viability, T/C [42] was 24.8%.

For O=c1[nH]cc(F)c(=O)[nH]1, the viability, T/C (compound 0.0316 µM) was 103% and 95.7% and 106%, the viability, T/C (compound 0.1 µM) was 93.6% and 90.8% and 93.9% and the viability, T/C (compound 0.316 µM) was 108% and 110% and 101%. The viability, T/C (compound 1 µM) was 102% and 107% and 96%, the viability, T/C (compound 3.16 µM) was 56.9% and 55.7% and 61.6% and the viability, T/C (compound 10 µM) was 51.6% and 43.3% and 50.6%. The IC50 (curve of compound) was > 10 µM and 5.36 µM.

With COc1ncnc(C2CC2)c1-c1ncc2cnn(Cc3ccc(-c4nc(C(F)(F)F)cn4C(C)C)cc3)c2n1 the viability, T/C (compound 0.0316 µM) was 97.5% and 104% and 97.6%, the viability, T/C (compound 0.1 µM) was 74.3% and 85.3% and 87.7% and the viability, T/C (compound 0.316 µM) was 88.8% and 90.9% and 90.6%. The viability, T/C (compound 1 µM) was 76% and 81.9% and 80.4%, the viability, T/C (compound 3.16 µM) was 89.2% and 95.1% and 95.5% and the viability, T/C (compound 10 µM) was 95.5% and 94.5% and 101%. For the same compound, the IC50 (curve of compound) was over 10 µM.

With CC(C)n1c(=O)n(C)c2cnc3cc(F)c(-c4ccc(OCCCN5CCCCC5)nc4)cc3c21 the viability, T/C (compound 0.0316 µM) was 96.3% and 102% and 96.4%, the viability, T/C (compound 0.1 µM) was 87.4% and 89.6% and 75.7% and the viability, T/C (compound 0.316 µM) was 94.5% and 98.5% and 85.1%. For the same compound, the viability, T/C (compound 1 µM) was 101% and 94.2% and 96.9%, the viability, T/C (compound 3.16 µM) was 98.9% and 96.3% and 105% and the viability, T/C (compound 10 µM) was 67.4% and 66.7% and 62.4%. It also gave an IC50 (curve of compound) of over 10 µM.
